Here are results for three compounds from patent publication US6946457B2, “Methods of treating sickle cell disease” (The Trustees of Columbia University in the City of New York, priority 2001, dated 2005).

Assay [1] relates to HbS erythrocytes. The assay can be described thus: Inhibition of sickling of intact erythrocytes at low oxygen tension. The assay is classed as cell-based, human. The conditions noted are these: for sickling of deoxygenated erythrocytes: microscope, formalin-fixed. How it is done:
The procedure used was essentially that of Cerami and Manning (15). The source of the red cells was human blood in which HbS represented essentially 100% of the total hemoglobin as determined by electrophoresis on a cellulose acetate membrane in a Supre-Heme® Tris-EDTA-boric acid buffer (Helena Laboratories, Beaumont, Tex.).
Ten microliters of blood was diluted to 5 ml with PBS and 1 ml aliquots were distributed into the same type of cuvettes used to study hemoglobin S aggregation (see above). Two #25 hypodermic needles were inserted into each plastic diaphragm and nitrogen was passed over the surface of the erythrocyte suspension for 15 minutes with periodic gentle shaking. The hypodermic needles were removed and the sealed cuvettes were left for 2 hours at room temperature. The control cuvette was treated identically except that the cap was loosened for the 2 hour period.
Then 250 μl of 10% buffered formalin (Metpath) was added to the cell suspensions, which were allowed to stand at room temperature for 15 minutes. The cell suspensions were then sedimented by centrifugation, suspended in 100 μl of PBS and examined under the microscope.

The subject of assay [2] is HbS erythrocytes. The conditions noted are these: literature (15, 16); cited from earlier work.
The target in another assay is human hemoglobin (Homo sapiens, UniProt P68871+P69905). The conditions noted are these: personal communication; cited from earlier work.
Another assay deals with T1, hemoglobin S (Homo sapiens, UniProt P68871+P69905, E7V).
T1 construct: from tissue; host or cells: blood / erythrocytes of a subject with sickle cell disease (inferred from the general method)
Briefly: Inhibition of aggregation of deoxygenated hemoglobin S (turbidity at 700 nm). The assay is classed as biochemical. The conditions noted are these: low oxygen tension, 1.8M phosphate buffer, 30° C. As to the method:
Inhibition of Aggregation of Hemoglobin S
To a 10 mm cuvette (Type 9GL14S, Septum seal, Uvonic Instruments, Plainview, N.Y. 11803) containing 0.9 ml of 1.8M phosphate buffer, pH 9.4, was added 5 mg of Na2S203. The cuvette was capped and two #25 hypodermic needles were inserted through the soft plastic seals. Nitrogen was passed over the surface of the solution for 15 minutes to drive off oxygen; the cuvette was then gently shaken to dissolve the Na2S203. The cuvette was then placed in an ice bath to bring the solution to 4° C. and 0.1 ml of a 2 g/dl HbS solution (13, 14) was added through the plastic diaphragm with a Hamilton air-tight syringe. The temperature of the solution in the cuvette was raised by placing it in a 30° C. bath and then into a spectrophotometer in which the increase in turbidity was measured with time at 700 nm. […] The latter was extracted with phosphate buffer from tablets of Valtrex (Glaxo Wellcome).

Take `N#C[O-].[K+]` [KCNO]: in the assay with HbS erythrocytes [1] (KCNO 2.4 mg/ml versus acyclovir (FIG. 2)), the “concentration relative to the effective concentration of acyclovir” value is recorded as “more than 10 ×”. In addition, the “concentration used to inhibit sickling” value in the assay on HbS erythrocytes [2] is 2.4 mg/mL.

Take `Nc1nc2c(ncn2COCCO)c(=O)[nH]1` [acyclovir, 2-amino-1,9-dihydro-9-[(2-hydroxyethoxy)methyl]-6H-purin-6-one]: the “sickling of deoxygenated erythrocytes” value in the assay on HbS erythrocytes [1] (0.2 mg/ml) is listed as “Minimal sickling”; in the assay on HbS erythrocytes [1] (0.3 mg/ml) it was “Minimal sickling”; in the assay with HbS erythrocytes [1] (0.4 mg/ml), “essentially no sickling”. Besides, the “proportion of sickling cells” value in the assay on HbS erythrocytes [1] (lowest concentration (FIG. 2B, 0.2 mg/ml)) was “below 60%”. Moreover, the “change in Hill coefficient” value on human hemoglobin was “no significant change”. Moreover, the “change in oxygen affinity” value on human hemoglobin is listed as “no significant change”. Also, on hemoglobin S, the “in vitro aggregation of HbS” value is “inhibiting”.

In the case of `CC(C)[C@H](N)C(=O)OCCOCn1cnc2c(=O)[nH]c(N)nc21` [valacyclovir, L-valine, 2-[(2-amino-1,6-dihydro-6-oxo-9H-purin-9-yl)methoxy]ethyl ester], the “in vitro aggregation of HbS” value at hemoglobin S is reported as “inhibiting”.
